Tests used:
NCI-H23 (lung cancer) = assay: SRB cytotoxicity assay, NCI-H23; format: cell-based; conditions: Homo sapiens, 48 h incubation, mean ± SEM of 3 independent experiments
Method in brief: (§1)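 Cells in DMEM were seeded at 3 × 10^4 cells/mL and preincubated 24 h at 37 °C, 5% CO2. Compounds were added in medium at 1% DMSO for 48 h. Cell density was read by sulforhodamine B staining, with IC50 by probit analysis as the mean of three independent screens.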

U937 cells = assay: Annexin V-FITC/PI apoptosis assay; format: cell-based, human; conditions: 24 h
Experimental: The Annexin V-FITC/PI dual staining assay was used to determine the percentage of apoptotic cells. U937 cells (5 × 10^5/mL per well) were plated in 6-well culture plates and allowed to grow for 24 h. In our first experiment, we examined the effects of 4f, 4h, 4n, 4o, 4p, and PAC-1 on apoptosis at 50 µM. In the second experiment, we examined the dose-dependent effect of 4o at 5, 10, and 30 µM and PAC-1 at 30 µM on apoptosis. The cells were treated with compounds for 24 h, and then harvested. The harvested cells were washed twice with ice-cold PBS and incubated in the dark at room temperature in […] of 1 × binding buffer containing 1 µL Annexin V-FITC and […] PI. After 15 min incubation, cells were analyzed for percentage undergoing apoptosis using a FACScalibur flow cytometer (BD Biosciences). The data were processed using Cell Quest Pro software (BD Biosciences).
Figure 5 Apoptosis (Annexin V/PI) analysis of cells after treatment with some compounds. U937 cells were treated with compounds (50 µM) for 24 h. The harvested cells were incubated with Annexin V-FITC and PI and analyzed by using flow cytometry. Ten thousand cells were acquired (n = 3). UN untreated, VH vehicle (DMSO. 0.1%). Representative dot plots (A). Live cells, left down in dot plot. Early apoptotic cells, right down. Necrotic cells, left up, Late apoptotic cells, right up. Bar graph of late apoptotic cells (B). p values were calculated using one-way ANOVA in GraphPad Software (San Diego, CA, USA). *p < 0.01 vs VH control. TEXT PRINTED IN THE PICTURE: (A) PAC-1: 10.40%; 29.30%; 12.70% | (A) 4f: 0.52%; 6.05%; 5.41% | (A) 4h: 0.89%; 13.20%; 7.67% | (A) 4n: 0.44%; 6.83%; 5.73% | (A) 4o: 0.67%; 17.30%; 8.17% | (A) 4p: 1.60%; 13.00%; 5.86% DOUBTS OF THE COPYIST ABOUT THIS PICTURE: The quadrant percentages are in small italic print over the dot plots, so 3, 5, 6, 8 and 9 cannot always be told apart. All values given are best readings. / PAC-1: 10.40%, 29.30% and 12.70% are best readings (29.30 could be 28.30) / 4f: 0.52%, 6.05% and 5.41% are best readings (6.05 could be 6.06 or 8.05) / 4h: 0.89%, 13.20% and 7.67% are best readings (0.89 could be 0.86 or 0.69) / 4n: 0.44%, 6.83% and 5.73% are best readings (6.83 could be 6.63 or 6.88) / 4o: 0.67%, 17.30% and 8.17% are best readings (8.17 could be 6.17) / 4p: 1.60%, 13.00% and 5.86% are best readings (5.86 could be 5.88 or 5.66) / The picture prints no measure for the percentages; only their quadrant position tells them apart. They are listed upper left, upper right, lower right. / The plots UN (0.70%, 2.31%, 3.03%) and VH (1.75%, 2.43%, 3.57%) are controls, not substances, and are left out of the lines.
Figure 6 Apoptosis (Annexin V/PI) analysis of cells after treatment with different concentrations of compound 4o. U937 cells were treated with compound 4o at 5, 10 and 30 µM or PAC-1 (30 µM) for 24 h. The harvested cells were incubated with Annexin V-FITC and PI and analyzed by using flow cytometry. Ten thousand cells were acquired (n = 3). UN untreated, VH vehicle (DMSO. 0.1%). Representative dot plots (A). Live cells, left down in dot plot. Early apoptotic cells, right down. Necrotic cells, left up, Late apoptotic cells, right up. Bar graph of late apoptotic cells (B). p values were calculated using one-way ANOVA in GraphPad Software (San Diego, CA, USA). *p < 0.01 vs VH control.

PC3 (prostate cancer) = assay: SRB cytotoxicity assay, PC3; format: cell-based; conditions: Homo sapiens, 48 h incubation, mean ± SEM of 3 independent experiments
Method in brief: as §1

SW620 (colon cancer) = assay: SRB cytotoxicity assay, SW620; format: cell-based; conditions: Homo sapiens, SW-620, 48 h incubation, mean ± SEM of 3 independent experiments
Method in brief: as §1

Structure (SMILES): COc1ccc(/C=N/NC(=O)CN2C(=O)Cc3cc(F)ccc32)c(O)c1 [Compound 4o, (E)-N'-(2-Hydroxy-4-methoxybenzylidene)-2-(5-fluoro-2-oxoindolin-1-yl)acetohydrazide]
- IC50 (NCI-H23 (lung cancer)): 1000 ± 10 nM
- melting point: 186 to 187 °C
- Late apoptotic cell population, dose dependence (U937 cells; U937, 5 µM): increased late apoptotic cell population
- Apoptotic effects compared among the representative compounds (U937 cells; U937, 50 µM): more prominent
- Induction of apoptosis (Annexin V-FITC/PI) (U937 cells; U937, 50 µM): induced early, and more substantially, late apoptosis
- IC50 (PC3 (prostate cancer)): 1830 ± 70 nM
- IC50 (SW620 (colon cancer)): 1880 ± 20 nM

From paper PMC8861050, “Design, synthesis and evaluation of novel 2-oxoindoline-based acetohydrazides as antitumor agents” (Scientific Reports, 2022)
